The target of this experiment is T1, human orexin type 2 receptor (Homo sapiens, UniProt O43614).
T1 construct: expressed in transfected cells
T1 sequence (O43614 1-444): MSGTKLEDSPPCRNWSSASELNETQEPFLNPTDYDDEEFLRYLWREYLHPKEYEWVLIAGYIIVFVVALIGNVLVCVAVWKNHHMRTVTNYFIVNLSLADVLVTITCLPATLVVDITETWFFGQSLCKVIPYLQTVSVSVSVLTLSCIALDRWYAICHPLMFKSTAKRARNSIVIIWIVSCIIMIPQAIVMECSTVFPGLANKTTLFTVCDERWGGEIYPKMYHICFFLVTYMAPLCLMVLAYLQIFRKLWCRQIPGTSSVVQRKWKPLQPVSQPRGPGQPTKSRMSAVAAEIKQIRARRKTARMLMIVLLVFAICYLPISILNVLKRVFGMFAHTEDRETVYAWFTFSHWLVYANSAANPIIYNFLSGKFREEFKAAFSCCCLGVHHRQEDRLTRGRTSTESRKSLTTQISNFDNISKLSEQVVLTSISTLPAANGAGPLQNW
Description: Measurement of orexin type 2 receptor agonist activity (calcium fluorescence, Fluo-4 AM, CHO cells forcibly expressing human OX2 receptor). Format: cell-based. As to conditions: test compound 3 μM, DMSO = 0%, orexin A (human) 10 nM = 100%. An excerpt:
To obtain a cell clone stably expressing human orexin type 2 receptor, human orexin type 2 receptor cDNA was inserted into pcDNA3.1(+) plasmid vector (Invitrogen), and a plasmid DNA for expression of human orexin type 2 receptor (pcDNA3.1(+)/hOX2R) was cloned. The plasmid DNA was introduced into CHO-dhfr cell by an electroporation method, and human orexin type 2 receptor expressing clone cells were obtained by limiting dilution method by using G418 drug resistance as a selection marker.
CHO cells forcibly expressing human OX2 receptor were seeded in each well of 384 well black transparent bottom plate (BD Falcon) at 7,500 cells/well, and cultured for one day in a 5% CO2 incubator at 37° C. After removal of the medium in the cell plate, assay buffer A containing a calcium indicator (HBSS (Thermo Fisher Scientific), 20 mM HEPES (Thermo Fisher Scientific), 0.1% BSA (Sigma-Aldrich), 2.5 μg/mL Fluo-4 AM (DOJINDO Chemical), 0.08% Pluronic F127 (DOJINDO Chemical), 1.25 mM probenecid (DOJINDO Chemical)) was added at 30 μL/well. The plate was stood for 30 min in a 5% CO2 incubator at 37° C., and further stood at room temperature for 30 min. A test compound prepared by diluting with assay buffer B (HBSS, 20 mM HEPES, 0.1% BSA) was added at 10 μL/well, and the fluorescence value was measured by FDSSpCELL (Hamamatsu Photonics K. K.) every one sec for 1 min, and thereafter every two sec for 1 min 40 sec. The activity (%) of the test compound was calculated assuming that variation in the fluorescence value when DMSO was added instead of the test compound was 0%, and variation in the fluorescence value when orexin A (human) (PEPTIDE INSTITUTE, INC.) was added at the final concentration of 10 nM was 100%.
In the case of `Cc1cc2n(n1)C(CO[C@H]1CC[C@@H](c3ccccc3)CC1)C(NS(C)(=O)=O)CC2` (mixture of isomers) [Example 1, rac-N-[(6S,7R)-2-methyl-7-({[(1s,4S)-4-phenylcyclohexyl]oxy}methyl)-4,5,6,7-tetrahydropyrazolo[1,5-a]pyridin-6-yl]methanesulfonamide], the “OX2R agonist activity (3 μM, %)” value came to 104%.

Consider `CCc1cc2n(n1)C(CO[C@H]1CC[C@@H](c3ccccc3)CC1)C(NS(C)(=O)=O)CC2` (mixture of isomers) [Example 2, rac-N-[(6S,7R)-2-ethyl-7-({[(1s,4S)-4-phenylcyclohexyl]oxy}methyl)-4,5,6,7-tetrahydropyrazolo[1,5-a]pyridin-6-yl]methanesulfonamide], for which the “OX2R agonist activity (3 μM, %)” value is listed as 107%.

For the molecule `Cc1cc2n(n1)[C@@H](COC1CCN(c3ncccn3)CC1)[C@@H](NS(C)(=O)=O)CC2` (racemic) [Example 3, rac-N-[(6S,7R)-2-methyl-7-({[1-(pyrimidin-2-yl)piperidin-4-yl]oxy}methyl)-4,5,6,7-tetrahydropyrazolo[1,5-a]pyridin-6-yl]methanesulfonamide], the “OX2R agonist activity (3 μM, %)” value came out at 82%.

Take `Cc1cc2n(n1)[C@@H](COC1CCN(c3ncc(F)cn3)CC1)[C@@H](NS(C)(=O)=O)CC2` (racemic) [Example 4, rac-N-[(6S,7R)-7-({[1-(5-fluoropyrimidin-2-yl)piperidin-4-yl]oxy}methyl)-2-methyl-4,5,6,7-tetrahydropyrazolo[1,5-a]pyridin-6-yl]methanesulfonamide]: the “OX2R agonist activity (3 μM, %)” value is reported as 98%.

As for `Cc1nc2n(n1)C(CO[C@H]1CC[C@@H](c3ccccc3)CC1)C(NS(C)(=O)=O)CC2` (mixture of isomers) [Example 5, rac-N-[(5R,6S)-2-methyl-5-({[(1s,4S)-4-phenylcyclohexyl]oxy}methyl)-5,6,7,8-tetrahydro[1,2,4]triazolo[1,5-a]pyridin-6-yl]methanesulfonamide], the “OX2R agonist activity (3 μM, %)” value is 99%.

For the molecule `CS(=O)(=O)NC1CCc2ncnn2C1CO[C@H]1CC[C@@H](c2ccccc2)CC1` (mixture of isomers) [Example 6, rac-N-[(5R,6S)-5-({[(1s,4S)-4-phenylcyclohexyl]oxy}methyl)-5,6,7,8-tetrahydro[1,2,4]triazolo[1,5-a]pyridin-6-yl]methanesulfonamide], the “OX2R agonist activity (3 μM, %)” value is 85%.

In the case of `Cc1cc2n(n1)[C@@H](Cc1cccc(-c3ccccc3)c1)[C@@H](NS(C)(=O)=O)CC2` (racemic) [Example 7, rac-N-{(6S,7S)-7-[([1,1′-biphenyl]-3-yl)methyl]-2-methyl-4,5,6,7-tetrahydropyrazolo[1,5-a]pyridin-6-yl}methanesulfonamide], the “OX2R agonist activity (3 μM, %)” value was 77%.

As for `CCc1cc2n(n1)[C@@H](Cc1cccc(-c3ccccc3)c1)[C@@H](NS(C)(=O)=O)CC2` (racemic) [Example 8, rac-N-{(6S,7S)-7-[([1,1′-biphenyl]-3-yl)methyl]-2-ethyl-4,5,6,7-tetrahydropyrazolo[1,5-a]pyridin-6-yl}methanesulfonamide], the “OX2R agonist activity (3 μM, %)” value was found to be 92%.

Regarding `CS(=O)(=O)N[C@H]1CCc2ccnn2[C@H]1COC1CCN(c2ncc(F)cn2)CC1` (racemic) [Example 9, rac-N-[(6S,7R)-7-({[1-(5-fluoropyrimidin-2-yl)piperidin-4-yl]oxy}methyl)-4,5,6,7-tetrahydropyrazolo[1,5-a]pyridin-6-yl]methanesulfonamide], the “OX2R agonist activity (3 μM, %)” value is 85%.

On to `Cc1nnn2c1CC[C@H](NS(C)(=O)=O)[C@@H]2COC1CCN(c2ncc(F)cn2)CC1` (racemic) [Example 10, rac-N-[(6S,7R)-7-({[1-(5-fluoropyrimidin-2-yl)piperidin-4-yl]oxy}methyl)-3-methyl-4,5,6,7-tetrahydro[1,2,3]triazolo[1,5-a]pyridin-6-yl]methanesulfonamide], for which the “OX2R agonist activity (3 μM, %)” value was 69%.

As for `Cc1nn2c(c1C)CC[C@H](NS(C)(=O)=O)[C@@H]2COC1CCN(c2ncc(F)cn2)CC1` (racemic) [Example 12, rac-N-[(6S,7R)-7-({[1-(5-fluoropyrimidin-2-yl)piperidin-4-yl]oxy}methyl)-2,3-dimethyl-4,5,6,7-tetrahydropyrazolo[1,5-a]pyridin-6-yl]methanesulfonamide], the “OX2R agonist activity (3 μM, %)” value amounted to 102%.

`Cc1nn2c(c1Cl)CC[C@H](NS(C)(=O)=O)[C@@H]2COC1CCN(c2ncc(F)cn2)CC1` (racemic) [Example 15, rac-N-[(6S,7R)-3-chloro-7-({[1-(5-fluoropyrimidin-2-yl)piperidin-4-yl]oxy}methyl)-2-methyl-4,5,6,7-tetrahydropyrazolo[1,5-a]pyridin-6-yl]methanesulfonamide]: the “OX2R agonist activity (3 μM, %)” value is on record as 91%.

Turning to `CC(C)n1cc2c(n1)[C@@H](Cc1cccc(-c3ccccc3)c1)[C@@H](NS(C)(=O)=O)CC2` (racemic) [Example 16, rac-N-[(6S,7S)-7-[([1,1′-biphenyl]-3-yl)methyl]-2-(propan-2-yl)-4,5,6,7-tetrahydro-2H-indazol-6-yl]methanesulfonamide], the “OX2R agonist activity (3 μM, %)” value was 84%.

For the molecule `Cc1nc2c(s1)CC[C@H](NS(C)(=O)=O)[C@@H]2Cc1cccc(-c2ccccc2)c1` (racemic) [Example 17, rac-N-{(4S,5S)-4-[([1,1′-biphenyl]-3-yl)methyl]-2-methyl-4,5,6,7-tetrahydro-1,3-benzothiazol-5-yl}methanesulfonamide], the “OX2R agonist activity (3 μM, %)” value amounted to 62%.

Consider `CS(=O)(=O)N[C@H]1CCc2cccnc2[C@H]1Cc1cccc(-c2ccccc2)c1` (racemic) [Example 22, rac-N-{(7S,8S)-8-[([1,1′-biphenyl]-3-yl)methyl]-5,6,7,8-tetrahydroquinolin-7-yl}methanesulfonamide], for which the “OX2R agonist activity (3 μM, %)” value is recorded as 63%.

As for `CC(C)c1cc2n(n1)[C@@H](Cc1cccc(-c3ccccc3)c1)[C@@H](NS(C)(=O)=O)CC2` (racemic) [Example 23, rac-N-[(6S,7S)-7-[([1,1′-biphenyl]-3-yl)methyl]-2-(propan-2-yl)-4,5,6,7-tetrahydropyrazolo[1,5-a]pyridin-6-yl]methanesulfonamide], the “OX2R agonist activity (3 μM, %)” value is listed as 109%.

With `CCc1cc2n(n1)[C@@H](COC1CCN(c3ncccn3)CC1)[C@@H](NS(C)(=O)=O)CC2` (racemic) [Example 28, rac-N-[(6S,7R)-2-ethyl-7-({[1-(pyrimidin-2-yl)piperidin-4-yl]oxy}methyl)-4,5,6,7-tetrahydropyrazolo[1,5-a]pyridin-6-yl]methanesulfonamide], the “OX2R agonist activity (3 μM, %)” value is recorded as 102%.

Take `CC(C)c1cc2n(n1)[C@@H](COC1CCN(c3ccccc3F)CC1)[C@@H](NS(C)(=O)=O)CC2` (racemic) [Example 29, rac-N-[(6S,7R)-7-({[1-(2-fluorophenyl)piperidin-4-yl]oxy}methyl)-2-(propan-2-yl)-4,5,6,7-tetrahydropyrazolo[1,5-a]pyridin-6-yl]methanesulfonamide]: the “OX2R agonist activity (3 μM, %)” value came out at 80%.

Turning to `CCc1nn2c(c1Cl)CC[C@H](NS(C)(=O)=O)[C@@H]2COC1CCN(c2ncccn2)CC1` (racemic) [Example 32, rac-N-[(6S,7R)-3-chloro-2-ethyl-7-({[1-(pyrimidin-2-yl)piperidin-4-yl]oxy}methyl)-4,5,6,7-tetrahydropyrazolo[1,5-a]pyridin-6-yl]methanesulfonamide], the “OX2R agonist activity (3 μM, %)” value turned out to be 92%.

`CC(O)c1cc2n(n1)C(Cc1cccc(-c3ccccc3)c1)C(NS(C)(=O)=O)CC2` (racemic) [Example 36, N-[(6SR,7SR)-7-[([1,1′-biphenyl]-3-yl)methyl]-2-(1-hydroxyethyl)-4,5,6,7-tetrahydropyrazolo[1,5-a]pyridin-6-yl]methanesulfonamide]: the “OX2R agonist activity (3 μM, %)” value amounted to 105%.

As to `CCc1cc2n(n1)[C@@H](COC1CCN(c3ncc(F)c(OC)n3)CC1)[C@@H](NS(C)(=O)=O)CC2` (racemic) [Example 40, rac-N-[(6S,7R)-2-ethyl-7-({[1-(5-fluoro-4-methoxypyrimidin-2-yl)piperidin-4-yl]oxy}methyl)-4,5,6,7-tetrahydropyrazolo[1,5-a]pyridin-6-yl]methanesulfonamide], the “OX2R agonist activity (3 μM, %)” value is on record as 96%.

The values above are taken from patent US12091410B2, “Heterocyclic compound” (Takeda Pharmaceutical Company Limited, priority 2018, dated 2024).
